Measurements as given in patent US20230293517A1, “ANTAGONIST COMPOUNDS” (AdoRx Therapeutics Limited, priority 2020, published 2023).
pIC50, pKi: −log10 of the molar value.

Assays:
[1] = molecular target: human Adenosine A1 receptor (Homo sapiens (Human), UniProt P30542); assay: Adenosine receptor TR-FRET binding assay (A1); conditions: inhibition of binding of 100 nM CA200645, CHO cell membranes
How it was run: (§1)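 TR-FRET displacement of fluorescent XAC (CA200645; 30 nM for A2b, 100 nM for A1/A2a/A3) from terbium-labelled human receptors in CHO membranes, 2 h at room temperature with saponin, 1% DMSO. Non-specific binding with 10 μM XAC; 665/620 nm ratio; Ki from IC50 by Cheng–Prusoff.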

[2] = molecular target: human Adenosine A2a receptor (Homo sapiens (Human), UniProt P29274); assay: Adenosine receptor TR-FRET binding assay (A2a); conditions: inhibition of binding of 100 nM CA200645, CHO cell membranes
How it was run: as §1

[3] = molecular target: human Adenosine A2b receptor (Homo sapiens (Human), UniProt P29275); assay: Adenosine receptor TR-FRET binding assay (A2b); conditions: TR-FRET, inhibition of binding of 30 nM CA200645, CHO cell membranes
How it was run: as §1

[4] = molecular target: human Adenosine A3 receptor (Homo sapiens (Human), UniProt P0DMS8); assay: Adenosine receptor TR-FRET binding assay (A3); conditions: inhibition of binding of 100 nM CA200645, CHO cell membranes
How it was run: as §1

human PBMCs = assay: CD3/CD28 stimulated IL-2 release NECA reversal assay in human PBMCs; type: cell-based; conditions: PBMC, 1 uM NECA, 24 hours, IL-2 in culture supernatant
How it was run: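 PBMCs from citrated healthy-donor blood plated at 50,000 cells/well on 1 ug/ml CD3 antibody with 1 ug/ml CD28 antibody, 1 uM NECA and 0.003-10 μM antagonist (final), 24 h at 37° C. Supernatant IL-2 measured by MSD immunoassay; % inhibition set against no-NECA control wells as 100%.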

[5] = system: CD8+T cells in human whole blood; assay: Measurement of pCREB in CD8+T cells in human whole blood; type: cell-based; conditions: 3 μM NECA, rolipram
How it was run: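 Heparinised human whole blood pre-incubated 20 min at 37 °C with serially diluted A2a antagonists plus rolipram, then stimulated 60 min with 3 μM NECA (final). After fixation and red-cell lysis, white cells were permeabilized and stained for phospho-CREB and CD8; pCREB in CD8+ T cells measured by flow cytometry.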

[6] = system: immature monocyte-derived dendritic cells (MoDC); assay: MoDC pCREB assay; type: cell-based, human; conditions: Homo sapiens, Dendritic cell; pCREB in immature MoDC, 1 μM NECA, rolipram
How it was run: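 Human CD14+ monocytes differentiated 5 days into immature MoDC, pre-incubated 15 min at 37 °C with antagonist plus rolipram, then stimulated with 1 μM NECA for 45 min at 37 °C. Phospho-CREB measured by flow cytometry in gated CD209+/CD86− low cells; IC50 from the inflection point of a sigmoidal curve.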

human Adenosine A1 receptor, sequence (P30542 whole entry): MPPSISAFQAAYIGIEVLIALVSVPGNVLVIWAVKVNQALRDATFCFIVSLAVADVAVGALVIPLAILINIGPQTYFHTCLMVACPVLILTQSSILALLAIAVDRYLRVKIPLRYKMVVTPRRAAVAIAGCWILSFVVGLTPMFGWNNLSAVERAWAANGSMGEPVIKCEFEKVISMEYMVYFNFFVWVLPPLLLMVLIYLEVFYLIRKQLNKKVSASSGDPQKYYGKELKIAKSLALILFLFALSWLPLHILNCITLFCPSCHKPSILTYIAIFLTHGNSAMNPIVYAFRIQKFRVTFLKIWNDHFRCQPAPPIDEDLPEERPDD
human Adenosine A3 receptor, sequence (P0DMS8 whole entry): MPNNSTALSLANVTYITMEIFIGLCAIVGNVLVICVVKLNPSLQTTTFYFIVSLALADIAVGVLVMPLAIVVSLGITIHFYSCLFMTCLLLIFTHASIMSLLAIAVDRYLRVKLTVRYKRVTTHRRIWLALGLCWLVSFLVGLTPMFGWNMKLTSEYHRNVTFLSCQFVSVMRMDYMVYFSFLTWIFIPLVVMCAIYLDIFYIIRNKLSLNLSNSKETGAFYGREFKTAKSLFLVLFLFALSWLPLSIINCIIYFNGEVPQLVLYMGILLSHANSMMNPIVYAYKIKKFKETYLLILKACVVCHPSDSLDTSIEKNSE
human Adenosine A2b receptor, sequence (P29275 whole entry): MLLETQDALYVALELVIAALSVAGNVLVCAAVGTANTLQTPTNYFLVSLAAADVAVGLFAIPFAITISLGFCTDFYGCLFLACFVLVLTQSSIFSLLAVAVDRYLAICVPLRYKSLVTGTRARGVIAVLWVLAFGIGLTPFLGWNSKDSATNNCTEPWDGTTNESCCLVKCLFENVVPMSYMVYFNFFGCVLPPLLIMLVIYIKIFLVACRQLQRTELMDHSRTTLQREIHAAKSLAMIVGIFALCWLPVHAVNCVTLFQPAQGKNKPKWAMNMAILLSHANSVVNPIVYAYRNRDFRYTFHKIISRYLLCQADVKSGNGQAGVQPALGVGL
human Adenosine A2a receptor, sequence (P29274 whole entry): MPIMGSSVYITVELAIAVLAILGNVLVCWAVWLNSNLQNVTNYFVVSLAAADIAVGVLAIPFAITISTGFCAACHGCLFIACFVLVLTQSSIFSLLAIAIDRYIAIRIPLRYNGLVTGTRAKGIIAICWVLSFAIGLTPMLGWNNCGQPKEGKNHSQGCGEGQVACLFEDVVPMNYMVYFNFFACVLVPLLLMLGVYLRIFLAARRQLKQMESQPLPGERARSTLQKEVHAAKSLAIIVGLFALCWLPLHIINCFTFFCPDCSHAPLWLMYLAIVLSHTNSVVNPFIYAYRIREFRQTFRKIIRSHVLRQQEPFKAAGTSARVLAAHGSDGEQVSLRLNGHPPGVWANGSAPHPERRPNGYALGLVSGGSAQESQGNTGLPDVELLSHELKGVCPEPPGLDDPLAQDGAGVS

SMILES | pKi [1] | pKi [2] | pKi [3] | pKi [4] | pIC50 [5] | pIC50 [6] | pIC50 (human PBMCs)
Cc1cc(-c2sc(NC(=O)N3CCC4(CC3)C(=O)N(C)C(=O)N4C)nc2-c2cccc(C#N)c2)cc(C)n1 [Example 4.28, N-[4-(3-Cyanophenyl)-5-(2,6-dimethyl-4-pyridyl)thiazol-2-yl]-1,3-dimethyl-2,4-dioxo-1,3,8-triazaspiro[4.5]decane-8-carboxamide] | 6.87 | 9.32 | 8.62 | 7.11 | 6.17 | 8.00 | 8.33
Cc1cc(-c2sc(NC(=O)N3CCC(C#N)(C#N)CC3)nc2-c2cccc(C#N)c2)cc(C)n1 [Example 4.32, 4,4-Dicyano-N-[4-(3-cyanophenyl)-5-(2,6-dimethyl-4-pyridyl)thiazol-2-yl]piperidine-1-carboxamide] | 7.59 | 9.82 | 8.96 | 6.34 | 7.22 | 7.85 | 9.15
Cc1cc(-c2sc(NC(=O)N3CCC(C)(C#N)CC3)nc2-c2cccc(C#N)c2)cc(C)n1 [Example 6, 4-Cyano-N-[4-(3-cyanophenyl)-5-(2,6-dimethyl-4-pyridyl)thiazol-2-yl]-4-methyl-piperidine-1-carboxamide] | 7.43 | 9.92 | 8.96 | 6.55 | 7.15 | 8.05 | 9.22
Cc1cc(-c2sc(NC(=O)N3CCC4(CC3)NC(=O)N(C)C4=O)nc2-c2cccc(C#N)c2)cc(C)n1 [Example 6.6, N-[4-(3-Cyanophenyl)-5-(2,6-dimethyl-4-pyridyl)thiazol-2-yl]-3-methyl-2,4-dioxo-1,3,8-triazaspiro[4.5]decane-8-carboxamide] | 7.09 | 8.84 | 8.89 | 6.63 | 6.22 | 7.62 | 8.09
Cc1cc(-c2sc(NC(=O)N3CC(C)(C#N)C3)nc2-c2cccc(C#N)c2)cc(C)n1 [Example 6.7, 3-Cyano-N-[4-(3-cyanophenyl)-5-(2,6-dimethyl-4-pyridyl)thiazol-2-yl]-3-methyl-azetidine-1-carboxamide] | 7.85 | 9.96 | 9.15 | 6.55 | 7.70 | 8.15 | 9.10
Cc1cc(-c2sc(NC(=O)N3CC[C@@H](C(C)(C)O)C3)nc2-c2cccc(C#N)c2)cc(C)n1 [Example 6.36, (3R)-N-[4-(3-Cyanophenyl)-5-(2,6-dimethyl-4-pyridyl)thiazol-2-yl]-3-(1-hydroxy-1-methyl-ethyl)pyrrolidine-1-carboxamide] | 6.88 | 9.06 | 8.38 | 6.42 | 7.05 | 7.80 | 8.38
Cc1cc(-c2sc(NC(=O)N3CC4(C3)CS(=O)(=O)C4)nc2-c2cccc(C#N)c2)cc(C)n1 [Example 6.46, N-[4-(3-Cyanophenyl)-5-(2,6-dimethyl-4-pyridyl)thiazol-2-yl]-2,2-dioxo-2λ^∧{6}-thia-6-azaspiro[3.3]heptane-6-carboxamide] | 6.95 | 8.69 | 8.72 | 6.63 | 6.44 | 7.42 | 7.82
Cc1cc(-c2sc(NC(=O)N3CC4(CCOC4)C3)nc2-c2cccc(C#N)c2)cc(C)n1 [Example 6.53, N-[4-(3-Cyanophenyl)-5-(2,6-dimethyl-4-pyridyl)thiazol-2-yl]-6-oxa-2-azaspiro[3.4]octane-2-carboxamide] | 6.96 | 9.57 | 8.80 | 6.18 | 6.89 | 7.40 | 8.60
Cc1cc(-c2sc(NC(=O)N3CCOC[C@H]3C)nc2-c2cccc(C#N)c2)cc(C)n1 [Example 6.74, (3R)-N-[4-(3-Cyanophenyl)-5-(2,6-dimethyl-4-pyridyl)thiazol-2-yl]-3-methyl-morpholine-4-carboxamide] | 7.64 | 9.20 | 8.72 | 6.66 | 6.62 | 9.00 | 8.25
Cc1cc(-c2sc(NC(=O)N3CCC4(COC4)C3)nc2-c2cccc(C#N)c2)cc(C)n1 [Example 6.81, N-[4-(3-Cyanophenyl)-5-(2,6-dimethyl-4-pyridyl)thiazol-2-yl]-2-oxa-7-azaspiro[3.4]octane-7-carboxamide] | 7.31 | 9.33 | 8.64 | 6.53 | 6.64 | 7.72 | 8.12
Cc1cc(-c2sc(NC(=O)N3CC4(CCN(C)C4=O)C3)nc2-c2cccc(C#N)c2)cc(C)n1 [Example 6.92, N-[4-(3-Cyanophenyl)-5-(2,6-dimethyl-4-pyridyl)thiazol-2-yl]-6-methyl-5-oxo-2,6-diazaspiro[3.4]octane-2-carboxamide] | 7.18 | 9.41 | 8.59 | 7.01 | 7.52 | 7.96 | 8.92
Cc1cc(-c2sc(NC(=O)N3CC4(CCO4)C3)nc2-c2cccc(C#N)c2)cc(C)n1 [Example 6.93, N-[4-(3-Cyanophenyl)-5-(2,6-dimethyl-4-pyridyl)thiazol-2-yl]-1-oxa-6-azaspiro[3.3]heptane-6-carboxamide] | 7.36 | 9.51 | 8.82 | 6.79 | 7.30 | 8.05 | 8.89
Cc1cc(-c2sc(NC(=O)N3CC4(COC4)C3)nc2-c2cccc(C#N)c2)cc(C(F)(F)F)n1 [Example 6.99, N-[4-(3-Cyanophenyl)-5-[2-methyl-6-(trifluoromethyl)-4-pyridyl]thiazol-2-yl]-2-oxa-6-azaspiro[3.3]heptane-6-carboxamide] | 7.85 | 9.89 | 9.15 | 7.11 | 7.40 | 8.10 | 9.15
Cc1cc(-c2sc(NC(=O)N3CCC(C)(C#N)CC3)nc2-c2cccc(C#N)c2)cc(CO)n1 [Example 24, 4-Cyano-N-[4-(3-cyanophenyl)-5-[2-(hydroxymethyl)-6-methyl-4-pyridyl]thiazol-2-yl]-4-methyl-piperidine-1-carboxamide] | 7.15 | 9.62 | 8.57 | 6.17 | 7.70 | 7.68 | 8.80

Second part, led by results:

pKi [1] | pKi [2] | pKi [3] | pKi [4] | pIC50 [5] | pIC50 [6] | SMILES | pIC50 (human PBMCs)
7.62 | 9.43 | 8.62 | 6.21 | 8.00 | 8.10 | Cc1cc(-c2sc(NC(=O)N3CCC(C#N)(C#N)CC3)nc2-c2cccc(C#N)c2)cc(CO)n1 [Example 9.8] | 9.15
8.22 | 9.55 | 8.08 | 5.82 | 8.00 | 7.26 | Cc1cc(-c2sc(NC(=O)N3CC4(COC4)C3)nc2-c2cccc(C#N)c2)cc(C(C)(C)O)n1 [Example 12.2, N-[4-(3-Cyanophenyl)-5-[2-(1-hydroxy-1-methyl-ethyl)-6-methyl-4-pyridyl]thiazol-2-yl]-2-oxa-6-azaspiro[3.3]heptane-6-carboxamide] | 9.40
7.38 | 9.80 | 8.80 | 6.01 | 7.00 | 7.89 | Cc1cc(-c2sc(NC(=O)N3CC4(COC4)C3)nc2-c2cccc(C#N)c2)cc(CF)n1 [Example 16.6] | 8.59
7.89 | 9.89 | 8.80 | 6.32 | 7.22 | 7.85 | Cc1cc(-c2sc(NC(=O)N3CC4(COC4)C3)nc2-c2cccc(C#N)c2)cc(C2CC2)n1 [Example 16.7] | 9.05
7.48 | 9.85 | 9.00 | 6.57 | 7.40 | 8.40 | Cc1cc(-c2sc(NC(=O)N3CC[C@](C)(C#N)C3)nc2-c2cccc(C#N)c2)cc(C)n1 [Example 27b, (3S)-3-cyano-N-[4-(3-cyanophenyl)-5-(2,6-dimethyl-4-pyridyl)thiazol-2-yl]-3-methyl-pyrrolidine-1-carboxamide] | 9.00
